Data set [1] in a line: Kinetic slurry study of the free base in various solvent systems; XRPD and equilibrium solubilities give relative polymorph stability. Format: physicochemical. Conditions: slurries in various solvent systems, temperatures and water amounts; solids isolated at 2, 4, 6, 24, 72 hours. The method, then: For example, the free base of (5) was slurried at ambient temperature in various solvent systems, at various temperatures, with varying amounts of water. In each solvent condition, solids were isolated for XRPD analysis at 2, 4, 6, 24, and 72 hours. Equilibrium solubilities in these solvents were then calculated and used to identify ethanol for the final slurry step. The difference in free energy between solid phases with the same composition (i.e., polymorphs, hydrates, or solvates) is directly proportional to their relative solubilities.

The nature of data set [2]: Solubility noted during palladium scavenging work. It counts as physicochemical. Conditions: qualitative; precluded use of common solid-supported palladium scavenging agents.

With `Cc1cc(Nc2cc(N)ncn2)c(=O)n2c1C(=O)NC21CCCCC1` [Form A, 6′-((6-aminopyrimidin-4-yl)amino)-8′-methyl-2′H-spiro[cyclohexane-1,3′-imidazo[1,5-a]pyridine]-1′,5′-dione], the “thermodynamic stability of polymorph” value in data set [1] was “most thermodynamically stable polymorph”. `Cc1cc(Nc2cc(N)ncn2)c(=O)n2c1C(=O)NC21CCCCC1` [Compound 5, 6′-((6-aminopyrimidin-4-yl)amino)-8′-methyl-2′H-spiro[cyclohexane-1,3′-imidazo[1,5-a]pyridine]-1′,5′-dione]: in data set [2], the solubility entry is recorded as “Low”.

Source of the values: patent publication US11952375B2, “Crystalline forms of Mnk inhibitors” (eFFECTOR Therapeutics Inc., priority 2018, dated 2024).
